Reference: US20040138272A1, “1,4-Substituted cyclohexane derivatives” (priority 2002, published 2004)

Key:
[1] = tested on: NG108-15 neuronal cell line; assay: Rapid bioassay of neurite growth in NG108-15 cells; format: cell-based
Method: When neurons are placed on inhibitory substrates in tissue culture, the neurons remain rounded. When an effective Rho kinase inhibitor is added to the neurons, the neurons are able to grow neurites on myelin substrates. The time that it takes for neurons to grow neurites after the addition of a Rho kinase inhibitor is about the same as the time that it takes for neurons to grow neurites if the neurons had been plated on growth permissive substrate such as laminin or polylysine, which time is typically 1 to 2 days in cell culture. An assessment of resulting neurite growth can be scored by visual means. If needed, a quantitative assessment of neurite growth can be performed. This involves measuring after a time such as 1 to 2 days the neurite length a) in control cultures where neurons are plated on myelin substrates and left untreated with Rho kinase inhibitor for such time, b) in positive control cultures, wherein for example neurons are plated on polylysine but left untreated with Rho kinase inhibitor for such time, and c) in cultures analogous to a) and b) that are treated with different concentrations of a Rho kinase inhibitor for such time. […] In this assay, NG108 cells are plated on plastic in the presence or absence of the test substance (a Rho kinase inhibitor). […] The relative efficacy can be assessed by fixing the cultures 5 hours after plating, and counting the number of cells that have grown neurites.
A rapid bioassay is used to determine the effect of a test compounds on the stimulation of neurite growth in vitro. A neuronal cell line, NG108-15 (ATCC HB-12317), is maintained in culture in Dulbecco's minimal essential medium (DMEM) supplemented with 10% fetal bovine serum, Penicillin/Streptomycin and HAT supplement (Gibco/BRL). For the bioassay, the cells are collected by trypsinisation and ressuspended in DMEM supplemented with 5% FBS, Penicillin/Streptomycin, HAT supplement and 0.25 mg/ml cAMP, adjusted to 1.0×10^4 cells/ml. The cells are plated into wells of a 96 well plate at 100 μls (1000 cells)/well. Cells are incubated 4 h at 37° C. and 5% CO2 in presence of small molecules or cethrin at a concentration of 1000 cells per well of a 96-wells plate in a final volume of 100 ul.
After incubation, cells are fixed by adding […] 16% PFA and 5.4 μls 2.5% glutaraldehyde to the media in each well. The wells are stained with cresyl violet 0.05% , 100 μls/well for 15 min. Cells with neurites (length≧one cell body) are counted using an inverted light microscope. The % neurite outgrowth is determined by calculating the number of cells with neurites over the total number of counted cells.

[2] = tested on: retinal ganglion cells (RGC); assay: Retinal ganglion cell survival 7 days after optic nerve axotomy, intravitreal injection; format: in vivo, rat; settings: for % Survival / Average RGC counts: 7 days after axotomy
Text: The retinal ganglion cell (RGC) response to injury and ischemia has been well documented (Berkelaar et al., 1994; Selles-Navarro et al., 1996; Vidal-Sanz et al., 1988; Villegas-Perez et al., 1998; Villegas-Perez et al., 1993). Transection of the optic nerve (ON) in the adult rat, as a model of fiber tract lesion in the adult mammalian CNS, results in delayed, mainly apoptotic death of 80-90% of retinal ganglion cells (RGCs) within 14 days post-lesion. Because of good surgical accessibility of the retina and the optic nerve, the retino-tectal projection represents not only a convenient model to study the molecular mechanisms underlying neuronal death but also serves as a suitable system for investigating potential neuroprotective agents in vivo.
After optic nerve transection, many of the retinal ganglion cells (RGC) in the eye die by apoptosis. The ability of BA-1016 to support RGC cell survival after optic nerve injury was tested. A single injection of BA-1016 was made in the eye, and one week later cell survival was assessed. Three animals were examined for each treatment group. Cell survival was improved one week after BA-1016. Neurotrophic factors that are known to rescue RGCs also give improved cell surival one week after axotomy, but multiple or chronic application is needed to increase the number of surviving cells.
Experiments were performed on adult female CD rats (180-200 g; Charles River, Canada). Animals were cared for according to the Canadian Council on Animal Care. Rats were under general anaesthesia with isofluorane connected to Moduflex Access anaesthesia machine during experimental procedures. Ophthalmic eye ointment (Polysporin) was applied to prevent corneal desiccation. […] All rats were pre-labelled with Fluorogold one week prior to optic nerve lesion.
One week after Fluorogold application, the left optic nerve was transected 1 mm from the eye. […] There are blood vessels on pia and optic nerve. The pia mater sheath was lifted and a lateral incision exposed the optic nerve. It was important not to cut the optic nerve before cutting the pia. When pia was cut, the optic nerve was moved gently to dislodge it from its sheath so that the scissors could be slipped under it to cut it. It was important to not pull the nerve at this point to avoid compromising the blood supply. When the optic nerve was well exposed, small scissors were slid tangentially under optic nerve, making sure to see their end on other side of the nerve, then cutting with one clean cut at 1 mm from the eye. Scissor blades were used as a reference for the 1 mm distance.
In the group of animals assigned to receive intravitreal injection after axotomy, the compounds of interest were injected into the vitreous space. […] The needle was removed after one minute. […]
A binocular microscope was used to view the eye during injection. The skin was closed with staples (auto clips) and the integrity of the retinal vasculature was evaluated by a postoperative ophthalmoscopy using a water-covered microscope slide. […] Finally the animals were returned to the cage and closely monitored until awakened
Seven days after axotomy, animals were killed by injecting an overdose of Chloral hydrate intraperitoneally and then they were fixed by perfusion with 4% paraformaldehyde (PFA), 0.1 M phosphate buffer; the eyes were remove carefully transecting the ocular muscles with scissors and forceps. […] RGCs are examined under the fluorescence microscope with an UV filter (365/420). […]

(R)-trans-4-(But-3′-en-1′-amino)-N-(4″-pyridyl)cyclohexane Carboxamide Dihydrochloride [BA-1016]
efficacy of the stereoisomers compared (FIG. 2) ([1]; BA-1016 versus BA-1017): better efficacy
neurite outgrowth (FIG. 2) ([1]; NG108 cells, 3.1 to 31 μM): promote neurite outgrowth
% Survival ([2]; Axotomy + 0.1 mM): 59%
Average RGC counts ([2]; Axotomy + 0.1 mM): 1352
% Survival ([2]; Axotomy + 1 mM): 60%
Average RGC counts ([2]; Axotomy + 1 mM): 1378
RGC cell survival after optic nerve injury ([2]; single injection in the eye, one week): improved
